Experimental data: US7547690B2, “Compounds for the treatment of Hepatitis C” (Bristol-Myers Squibb Company, priority 2007, dated 2009)
Read-outs that look alike come from different tables or passages of the source.

Columns and labels:
HCV replicon cells = experiment: HCV replicon FRET / luciferase assay; assay type: cell-based; settings: Hepatitis C virus
In short: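 HCV replicon cells (with or without Renilla luciferase reporter) incubated with titrated compounds at 37° C; cytotoxicity read by Alamar blue. Replicon activity then read by NS3 cleavage of EDANS/DABCYL FRET peptide (20 μM final, 340/490 nm kinetic) or by luciferase; background from highest control-inhibitor wells subtracted; EC50 = concentration giving 50% signal reduction.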

HCV NS5B = target: T1, HCV NS5B (Hepatitis C virus genotype 1b, UniProt Q9WMX2); experiment: HCV NS5B RdRp enzyme assay (standard / modified); assay type: biochemical; settings: standard or modified assay not specified
T1 construct: The protein was expressed with an 18 amino acid C-terminal truncation to enhance the solubility; made in house; host or cells: E. coli BL21(DE3)
In short: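 Genotype 1b NS5B, 18-aa C-terminal truncation, E. coli-expressed; polyA template with biotin-oligo-dT12 primer, 3H-UTP (0.29 μM UTP), pH 7.5 Hepes, 2% DMSO, 30 °C, SPA read. Standard: 28 nM enzyme, 6 nM template, 180 nM primer, 60 min. Modified: 1.75 nM enzyme, 0.36 nM template, 20 nM bead-precaptured primer, 4 h; IC50 from seven concentrations, four-parameter fit.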

[1] = 50% reduction in FRET or luciferase activity in HCV replicon cells, read-out: EC50
[2] = HCV RdRp genotype 1b, read-out: IC50

T1 sequence (Q9WMX2 2420-2992): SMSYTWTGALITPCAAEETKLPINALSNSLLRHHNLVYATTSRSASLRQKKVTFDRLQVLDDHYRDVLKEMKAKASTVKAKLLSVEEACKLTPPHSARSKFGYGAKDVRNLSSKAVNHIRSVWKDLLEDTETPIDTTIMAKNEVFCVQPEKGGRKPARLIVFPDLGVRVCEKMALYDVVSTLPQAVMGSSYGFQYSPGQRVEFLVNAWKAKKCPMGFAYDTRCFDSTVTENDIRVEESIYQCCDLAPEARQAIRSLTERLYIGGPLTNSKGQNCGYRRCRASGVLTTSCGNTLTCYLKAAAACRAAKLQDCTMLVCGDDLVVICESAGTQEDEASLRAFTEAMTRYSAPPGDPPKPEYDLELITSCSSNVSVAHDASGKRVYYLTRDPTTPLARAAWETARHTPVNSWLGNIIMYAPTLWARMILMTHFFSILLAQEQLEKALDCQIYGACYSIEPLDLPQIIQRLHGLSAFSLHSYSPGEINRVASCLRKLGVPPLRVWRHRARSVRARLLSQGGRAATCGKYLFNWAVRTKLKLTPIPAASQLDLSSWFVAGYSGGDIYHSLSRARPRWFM

Row | Compound | EC50 (HCV replicon cells; [1]) [nM] | IC50 (HCV NS5B; [2]) [nM] | EC50 (HCV replicon cells) [nM] | IC50 (HCV NS5B; IC50, HCV RdRp genotype 1b) [nM]
1 | COc1ccc2c(c1)C1CC1(C(=O)N1C3COCC1CN(C)C3)Cn1c-2c(C2CCCCC2)c2ccc(C(=O)NS(=O)(=O)N(C)C)cc21 (stereo not drawn) | 2.4 to 500 | 2.4 to 500 | – | –
2 | COc1ccc2c(c1)C1CC1(C(=O)N1CC3CCC1CN3)Cn1c-2c(C2CCCCC2)c2ccc(C(=O)NS(=O)(=O)C3CCCCC3)cc21 (stereo not drawn) | > 1000 | 2.4 to 500 | – | –
3 | COc1ccc2c(c1)C1CC1(C(=O)N1C3CCCC1CN(C)C3)Cn1c-2c(C2CCCCC2)c2ccc(C(=O)NS(=O)(=O)N3CCOCC3)cc21 (stereo not drawn) | 2.4 to 500 | 2.4 to 500 | – | –
4 | COc1ccc2c(c1)[C@@H]1C[C@]1(C(=O)N1C3CCC1C1CCC3N1C)Cn1c-2c(C2CCCCC2)c2ccc(C(=O)NS(=O)(=O)N(C)C)cc21 [drawing 160] | – | – | 2.4 to 500 | 2.4 to 500
5 | COc1ccc2c(c1)[C@@H]1C[C@]1(C(=O)N1C3CN(C)CC1CN(C(C)=O)C3)Cn1c-2c(C2CCCCC2)c2ccc(C(=O)NS(=O)(=O)N(C)C)cc21 | 2.4 to 500 | 2.4 to 500 | – | –
6 | COc1ccc2c(c1)C1CC1(C(=O)N1C[C@H]3C[C@@H]1CN3C)Cn1c-2c(C2CCCCC2)c2ccc(C(=O)NS(N)(=O)=O)cc21 (stereo partly drawn) | 2.4 to 500 | 2.4 to 500 | – | –
7 | COc1ccc2c(c1)C1CC1(C(=O)N1CC3CN(C)CC(C1)N3C(C)=O)Cn1c-2c(C2CCCCC2)c2ccc(C(=O)NS(=O)(=O)N(C)C)cc21 (stereo not drawn) | 2.4 to 500 | 2.4 to 500 | – | –
8 | COc1ccc2c(c1)C1CC1(C(=O)N1CCN3CCC1CC3)Cn1c-2c(C2CCCCC2)c2ccc(C(=O)NS(=O)(=O)C3CC3)cc21 (stereo not drawn) [drawing 50] | 2.4 to 500 | 2.4 to 500 | – | –
9 | COc1ccc2c(c1)C1CC1(C(=O)N1C[C@@H]3C[C@H]1CN3C)Cn1c-2c(C2CCCCC2)c2ccc(C(=O)NS(C)(=O)=O)cc21 (stereo partly drawn) | 2.4 to 500 | 2.4 to 500 | – | –
10 | COc1ccc2c(c1)C1CC1(C(=O)N1C3CC1CN(C)C3)Cn1c-2c(C2CCCCC2)c2ccc(C(=O)NS(=O)(=O)C(C)C)cc21 (stereo not drawn) | 2.4 to 500 | 2.4 to 500 | – | –
11 | COc1ccc2c(c1)C1CC1(C(=O)N1C3CC1CN(C)C3)Cn1c-2c(C2CCCCC2)c2ccc(C(=O)NS(=O)(=O)CC(C)(C)C)cc21 (stereo not drawn) | 2.4 to 500 | 2.4 to 500 | – | –
12 | COc1ccc2c(c1)C1CC1(C(=O)N1CC3CCC1CN3)Cn1c-2c(C2CCCCC2)c2ccc(C(=O)NS(=O)(=O)C3CCCC3)cc21 (stereo not drawn) | > 1000 | 2.4 to 500 | – | –
13 | CCCS(=O)(=O)NC(=O)c1ccc2c(C3CCCCC3)c3n(c2c1)CC1(C(=O)N2C4CC2CN(C)C4)CC1c1cc(OC)ccc1-3 (stereo not drawn) | 2.4 to 500 | 2.4 to 500 | – | –
14 | COc1ccc2c(c1)C1CC1(C(=O)N1C3COC[C@@H]1CN(C)C3)Cn1c-2c(C2CCCCC2)c2ccc(C(=O)NS(=O)(=O)CC(C)C)cc21 (stereo partly drawn) | 2.4 to 500 | 2.4 to 500 | – | –
15 | COc1ccc2c(c1)C1CC1(C(=O)N1CC3COCC(C1)N3)Cn1c-2c(C2CCCCC2)c2ccc(C(=O)NS(=O)(=O)N(C)C)cc21 (stereo not drawn) | 2.4 to 500 | 2.4 to 500 | – | –
16 | COc1ccc2c(c1)C1CC1(C(=O)N1CC3CCC1CN3)Cn1c-2c(C2CCCCC2)c2ccc(C(=O)NS(=O)(=O)CCC(F)(F)F)cc21 (stereo not drawn) | > 1000 | 2.4 to 500 | – | –
17 | CCN1C[C@H]2C[C@@H]1CN2C(=O)C12CC1c1cc(OC)ccc1-c1c(C3CCCCC3)c3ccc(C(=O)NS(=O)(=O)C4CC4)cc3n1C2 (stereo partly drawn) [drawing 43] | 2.4 to 500 | < 20 | – | –
18 | CCN1C[C@H]2C[C@@H]1CN2C(=O)C12CC1c1cc(OC)ccc1-c1c(C3CCCCC3)c3ccc(C(=O)NS(N)(=O)=O)cc3n1C2 (stereo partly drawn) | 2.4 to 500 | 2.4 to 500 | – | –
19 | COc1ccc2c(c1)C1CC1(C(=O)N1C3CCCC1CN(C)C3)Cn1c-2c(C2CCCCC2)c2ccc(C(=O)NS(=O)(=O)C(C)C)cc21 (stereo not drawn) | 2.4 to 500 | 2.4 to 500 | – | –
20 | COc1ccc2c(c1)C1CC1(C(=O)N1C[C@@H]3C[C@H]1CN3C)Cn1c-2c(C2CCCCC2)c2ccc(C(=O)NS(=O)(=O)C3CC3)cc21 (stereo partly drawn) [drawing 72] | 2.4 to 500 | < 20 | – | –
21 | CCN1CC2CC(C1)N2C(=O)C12CC1c1cc(OC)ccc1-c1c(C3CCCCC3)c3ccc(C(=O)NS(=O)(=O)C(C)C)cc3n1C2 (stereo not drawn) | 2.4 to 500 | 2.4 to 500 | – | –
22 | COc1ccc2c(c1)C1CC1(C(=O)N1CC3CCC1CN3)Cn1c-2c(C2CCCCC2)c2ccc(C(=O)NS(=O)(=O)CC(C)C)cc21 (stereo not drawn) | > 1000 | 2.4 to 500 | – | –
23 | COc1ccc2c(c1)C1CC1(C(=O)N1[C@@H]3C[C@H]1CN(C)C3)Cn1c-2c(C2CCCCC2)c2ccc(C(=O)NS(=O)(=O)C3CC3)cc21 (stereo partly drawn) | 2.4 to 500 | 2.4 to 500 | – | –
24 | COc1ccc2c(c1)C1CC1(C(=O)N1C3CN(C)CC1CN(C(C)=O)C3)Cn1c-2c(C2CCCCC2)c2ccc(C(=O)NS(=O)(=O)N(C)C)cc21 (stereo not drawn) | 2.4 to 500 | 2.4 to 500 | – | –
